Reference: patent US11780832B2, “Lactivicin compounds, their preparation and use as antibacterial agents” (priority 2021, dated 2023)
In brackets after ≈: the same amount, converted by molar mass.

Key:
Type in all cases: cell-based
[1] = system: Klebsiella pneumoniae CMY-DHA; assay: MIC against CMY-DHA producing strains, compound alone; settings: row r32
Protocol: (§1) Gram-negative and Gram-positive bacterial strains used during the in vitro minimum inhibitory concentration (MIC) determination were obtained either from the American Type Culture Collection (ATCC) or from clinical specimens. All strains were characterized genotypically and the respective antibiotic resistance markers for each strain were identified.
(§2) Isolates were sub-cultured onto appropriate media and stocked in skim milk at −80° C. Following two subcultures from frozen stock, in vitro antimicrobial susceptibility testing was performed using the Clinical and Laboratory Standards Institute (CLSI) broth microdilution method. Briefly, fresh cultures were suspended in culture media to give a final stock inoculum size of 5×10^7 colony forming units per milliliter of broth (CFU/mL). Test compounds were prepared at a stock solution concentration equal to 128 μg/mL, then diluted to give a final an initial working concentration of 32 μg/mL. 100 μL of the stock solutions were added to the first wells in a 96-well plate and were then diluted using a 2-fold dilution method to give a range of 32-0.025 μg/mL. 100 μL of the bacterial suspensions were then added to the 96-well plates to give a final working inoculum size of 5×10^5 CFU/mL. The final compound concentration range was 16-0.0125 μg/mL. […] MICs for comparator agents were determined using custom-designed, in-house prepared 96-well broth microdilution panels.

[2] = system: Proteus mirabilis CMY-DHA; assay: as above; settings: row r36
Protocol: as §1, §2

Escherichia coli CMY-DHA [3] = assay: as above
Protocol: as §1, §2

[4] = system: Klebsiella pneumoniae OXA-48, SHV-1; assay: MIC, CLSI broth microdilution
Outline: (§3)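 CLSI broth microdilution; 2-fold compound series, final 16-0.0125 μg/mL; final inoculum 5×10^5 CFU/mL. Strains genotyped for resistance markers, passaged twice from frozen stock before testing.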

[5] = system: Escherichia coli CTX-M-15; assay: MIC, CLSI broth microdilution; settings: CTXM15
Outline: (§4)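 Genotyped isolates from ATCC or clinical sources were subcultured twice from −80 °C skim-milk stocks, then tested by CLSI broth microdilution. Compounds were serially diluted 2-fold to a final 16-0.0125 μg/mL, with a final inoculum of 5×10^5 CFU/mL.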

[6] = system: Klebsiella pneumoniae OXA-163, OXA-1_OXA-30, SHV-1, TEM-1; assay: MIC, CLSI broth microdilution
Outline: as §3

[7] = system: Klebsiella pneumoniae KPC-2; assay: MIC, CLSI broth microdilution; settings: KPC2
Outline: as §4

[8] = system: Serratia marcescens SME-2; assay: MIC, CLSI broth microdilution; settings: SME2
Outline: as §4

[9] = system: Citrobacter freundii species complex OXA-181; assay: MIC, CLSI broth microdilution; settings: Citrobacter freundii species complex, OXA-181; read-out: MIC
Outline: as §4

[10] = system: Pseudomonas aeruginosa AmpC overexpressed; assay: MIC, CLSI broth microdilution
Outline: as §3

[11] = system: Escherichia coli ATCC 25922; assay: MIC, CLSI broth microdilution; settings: ATCC25922
Outline: as §4

[12] = system: Klebsiella pneumoniae SHV-12; assay: MIC, CLSI broth microdilution; settings: SHV12, SHV-12, read-out: MIC
Outline: as §4

[13] = system: Klebsiella oxytoca KPC-2, TEM-1; assay: MIC, CLSI broth microdilution; settings: KPC-2, TEM-1, read-out: MIC
Outline: as §4

[14] = system: Acinetobacter baumannii ATCC 19606; assay: MIC, CLSI broth microdilution; settings: ATCC19606
Outline: as §4

[15] = system: Enterobacter cloacae species complex NDM-1; assay: MIC, CLSI broth microdilution
Outline: as §4

[16] = system: Serratia marcescens AmpC overexpressed; assay: MIC, CLSI broth microdilution
Outline: as §3

[17] = system: Klebsiella pneumoniae KPC-3; assay: MIC, CLSI broth microdilution; settings: KPC3, KPC-3, read-out: MIC
Outline: as §4

[18] = system: Klebsiella aerogenes VIM-1, SHV-12; assay: MIC, CLSI broth microdilution
Outline: as §4

Escherichia coli SHV-12 = assay: MIC, CLSI broth microdilution; settings: SHV12
Outline: as §4

[19] = system: Pseudomonas aeruginosa OprD negative; assay: MIC, CLSI broth microdilution
Outline: as §3

Escherichia coli CMY-2 = assay: MIC, CLSI broth microdilution; settings: CMY2
Outline: as §4

[20] = system: Pseudomonas aeruginosa ATCC 27853; assay: MIC, CLSI broth microdilution; settings: ATCC27853
Outline: as §4

[21] = system: Escherichia coli Elevated AmpC; assay: Synergistic activity: MIC in the presence of Avibactam
Protocol: as §2
(§5) The same method used to test the activity of the claimed compounds was used to determine their synergistic activity when combined with a β-lactamase inhibitor except that either a fixed concentration or fixed ratio of a β-lactamase inhibitor was added to the 96-well plates prior to adding the bacteria cultures. Synergistic activity was defined as the reduction of MIC of a given compound when tested using the β-lactamase inhibitor versus testing the compound in the absence of a β-lactamase inhibitor.

[22] = system: Klebsiella pneumoniae CMY-DHA; assay: as above; settings: row r32, in the presence of Avibactam @ 4 μg/mL
Protocol: as §2, §5

Escherichia coli CMY-DHA [23] = assay: as above
Protocol: as §2, §5

[24] = strain of row r10, in the presence of Avibactam @ 4 μg/mL
[25] = strain of row r11, in the presence of Avibactam @ 4 μg/mL
[26] = strain of row r12, in the presence of Avibactam @ 4 μg/mL
[27] = strain of row r13, in the presence of Avibactam @ 4 μg/mL
[28] = strain of row r14, in the presence of Avibactam @ 4 μg/mL
[29] = strain of row r15, in the presence of Avibactam @ 4 μg/mL
[30] = strain of row r26, in the presence of Avibactam @ 4 μg/mL
[31] = strain of row r27, in the presence of Avibactam @ 4 μg/mL
[32] = strain of row r28, in the presence of Avibactam @ 4 μg/mL
[33] = strain of row r29, in the presence of Avibactam @ 4 μg/mL
[34] = strain of row r30, in the presence of Avibactam @ 4 μg/mL
[35] = strain of row r31, in the presence of Avibactam @ 4 μg/mL
[36] = strain of row r34, in the presence of Avibactam @ 4 μg/mL
[37] = strain of row r35, in the presence of Avibactam @ 4 μg/mL

CC(C)(O/N=C(\C(=O)N[C@@H]1C(=O)N2C(C(=O)[O-])=C(C[n+]3ccccc3)CS[C@H]12)c1csc(N)n1)C(=O)O [Ceftazidime, ceftazidime, reference compound]
MIC [1]: 16 µg/mL (≈ 29.3 µM)
MIC [2]: 16 µg/mL (≈ 29.3 µM)
MIC (Escherichia coli CMY-DHA [3]; strain of row r26): 32 µg/mL (≈ 58.5 µM)
MIC (Escherichia coli CMY-DHA [3]; strain of row r27): 32 µg/mL (≈ 58.5 µM)
MIC (Escherichia coli CMY-DHA [3]; strain of row r28): 8 µg/mL (≈ 14.6 µM)
MIC (Escherichia coli CMY-DHA [3]; strain of row r29): 32 µg/mL (≈ 58.5 µM)
MIC (Escherichia coli CMY-DHA [3]; strain of row r30): 4 µg/mL (≈ 7.32 µM)
MIC (Escherichia coli CMY-DHA [3]; strain of row r31): 32 µg/mL (≈ 58.5 µM)
MIC (Escherichia coli CMY-DHA [3]; strain of row r34): > 32 µg/mL
MIC (Escherichia coli CMY-DHA [3]; strain of row r35): > 32 µg/mL
MIC [4]: 0.5 µg/mL (≈ 0.915 µM)
MIC [5]: 4 µg/mL (≈ 7.32 µM)
MIC [6]: > 32 µg/mL
MIC [7]: > 32 µg/mL
MIC [8]: 0.25 µg/mL (≈ 0.457 µM)
MIC [9]: 8 µg/mL (≈ 14.6 µM)
MIC [10]: 8 µg/mL (≈ 14.6 µM)
MIC [11]: 0.25 µg/mL (≈ 0.457 µM)
MIC [12]: > 32 µg/mL
MIC [13]: 1 µg/mL (≈ 1.83 µM)
MIC [14]: 8 µg/mL (≈ 14.6 µM)
MIC [15]: > 32 µg/mL
MIC [16]: 0.5 µg/mL (≈ 0.915 µM)
MIC [17]: > 32 µg/mL
MIC [18]: > 32 µg/mL
MIC (Escherichia coli SHV-12): 32 µg/mL (≈ 58.5 µM)
MIC [19]: 2 µg/mL (≈ 3.66 µM)
MIC (Escherichia coli CMY-2): > 32 µg/mL
MIC [20]: 1 µg/mL (≈ 1.83 µM)
MIC [21, 24]: 0.12 µg/mL
MIC [21, 25]: 0.06 µg/mL
MIC [21, 26]: 0.12 µg/mL
MIC [21, 27]: 0.12 µg/mL
MIC [21, 28]: 0.12 µg/mL
MIC [21, 29]: 0.5 µg/mL
MIC [22]: 0.12 µg/mL
MIC (Escherichia coli CMY-DHA [23]; [30]): 0.5 µg/mL
MIC (Escherichia coli CMY-DHA [23]; [31]): 0.5 µg/mL
MIC (Escherichia coli CMY-DHA [23]; [32]): 0.06 µg/mL
MIC (Escherichia coli CMY-DHA [23]; [33]): 0.12 µg/mL
MIC (Escherichia coli CMY-DHA [23]; [34]): <=0.015 μg/mL
MIC (Escherichia coli CMY-DHA [23]; [35]): 0.12 µg/mL
MIC (Escherichia coli CMY-DHA [23]; [36]): 0.5 µg/mL
MIC (Escherichia coli CMY-DHA [23]; [37]): 0.25 µg/mL

Nc1nc(/C(=N/OC2(C(=O)O)CCC(F)(F)CC2)C(=O)N[C@H]2CON(C3(C(=O)O)C[C@H](N4C(=O)c5cc(O)c(O)cc5C4=O)C(=O)O3)C2=O)cs1 (stereo partly drawn) [Cmpd 10, (4S)-2-[(4S)-4-{[(2Z)-2-(2-amino-1,3-thiazol-4-yl)-2-{[(1-carboxy-4,4-difluorocyclohexyl)oxy]imino}acetyl]amino}-3-oxo-1,2-oxazolidin-2-yl]-4-(5,6-dihydroxy-1,3-dioxo-1,3-dihydro-2H-isoindol-2-yl)-5-oxooxolane-2-carboxylic acid]
MIC [1]: 0.5 µg/mL (≈ 0.677 µM)
MIC [2]: 0.12 µg/mL (≈ 0.162 µM)
MIC (Escherichia coli CMY-DHA [3]; strain of row r26): 0.5 µg/mL (≈ 0.677 µM)
MIC (Escherichia coli CMY-DHA [3]; strain of row r27): 0.03 µg/mL (≈ 0.0406 µM)
MIC (Escherichia coli CMY-DHA [3]; strain of row r28): 0.25 µg/mL (≈ 0.338 µM)
MIC (Escherichia coli CMY-DHA [3]; strain of row r29): 0.5 µg/mL (≈ 0.677 µM)
MIC (Escherichia coli CMY-DHA [3]; strain of row r30): 0.25 µg/mL (≈ 0.338 µM)
MIC (Escherichia coli CMY-DHA [3]; strain of row r31): 1 µg/mL (≈ 1.35 µM)
MIC (Escherichia coli CMY-DHA [3]; strain of row r34): 0.06 µg/mL (≈ 0.0812 µM)
MIC (Escherichia coli CMY-DHA [3]; strain of row r35): 0.12 µg/mL (≈ 0.162 µM)
MIC [4]: ≤ 0.015 µg/mL
MIC [5]: 1 µg/mL (≈ 1.35 µM)
MIC [6]: 0.06 µg/mL (≈ 0.0812 µM)
MIC [7]: 0.03 µg/mL (≈ 0.0406 µM)
MIC [8]: 0.06 µg/mL (≈ 0.0812 µM)
MIC [9]: ≤ 0.015 µg/mL
MIC [10]: 2 µg/mL (≈ 2.71 µM)
MIC [11]: 0.12 µg/mL (≈ 0.162 µM)
MIC [12]: ≤ 0.015 µg/mL
MIC [13]: ≤ 0.015 µg/mL
MIC [14]: 0.12 µg/mL (≈ 0.162 µM)
MIC [15]: 2 µg/mL (≈ 2.71 µM)
MIC [16]: 0.12 µg/mL (≈ 0.162 µM)
MIC [17]: 0.06 µg/mL (≈ 0.0812 µM)
MIC [18]: 0.12 µg/mL (≈ 0.162 µM)
MIC (Escherichia coli SHV-12): 2 µg/mL (≈ 2.71 µM)
MIC [19]: 0.25 µg/mL (≈ 0.338 µM)
MIC (Escherichia coli CMY-2): 1 µg/mL (≈ 1.35 µM)
MIC [20]: 0.12 µg/mL (≈ 0.162 µM)
MIC [21, 24]: <=0.008 μg/mL
MIC [21, 25]: 0.03 µg/mL
MIC [21, 26]: 0.03 µg/mL
MIC [21, 27]: <=0.008 μg/mL
MIC [21, 28]: <=0.008 μg/mL
MIC [21, 29]: 0.06 µg/mL
MIC [22]: 0.25 µg/mL
MIC (Escherichia coli CMY-DHA [23]; [30]): 0.06 µg/mL
MIC (Escherichia coli CMY-DHA [23]; [31]): <=0.008 μg/mL
MIC (Escherichia coli CMY-DHA [23]; [32]): 0.03 µg/mL
MIC (Escherichia coli CMY-DHA [23]; [33]): 0.06 µg/mL
MIC (Escherichia coli CMY-DHA [23]; [34]): <=0.008 μg/mL
MIC (Escherichia coli CMY-DHA [23]; [35]): 0.06 µg/mL
MIC (Escherichia coli CMY-DHA [23]; [36]): 0.015 µg/mL
MIC (Escherichia coli CMY-DHA [23]; [37]): 0.015 µg/mL
